Reference: patent US10214492B2, “Heterocyclic inhibitors of MCT4” (Vettore, LLC, priority 2016, dated 2019)

What was measured:
[1] = Metabolic stability in mouse liver microsomes (in vitro t1/2); type: in vitro ADME; settings: for half-life at 2 µM: mouse liver microsomes 0.5 mg/mL, 2 μM compound, read-out: Mouse microsome t1/2, min; for Mouse microsome % 60 min: mouse liver microsomes
Method: (§1) The following are assays that may be used to evaluate the metabolic stability of compounds of Formula (I) in human, rat, or mouse microsomes. The assays follow a common procedure recited below. 1. […] Two separated experiments were performed as follows. a) With NADPH: 10 μL of 20 mg/mL liver microsomes and 40 μL of 10 mM NADPH were added to the incubations. […] The final concentration of microsomes was 0.5 mg/mL. 3. The reaction was started with the addition of 4 μL of 200 μM control compound or test compound solutions. Verapamil was used as positive control in this study. The final concentration of test compound or control compound was 2 μM. 4. Aliquots of 50 μL were taken from the reaction solution at 0, 15, 30, 45 and 60 min. […] Samples were centrifuged at 3,220 g for 40 minutes. A 90 μL aliquot of the supernatant was mixed with 90 μL of ultra-pure H2O and then used for LC-MS/MS analysis. 5. Data analysis. All calculations were carried out using Microsoft Excel. Peak areas were determined from extracted ion chromatograms. The slope value, k, was determined by linear regression of the natural logarithm of the remaining percentage of the parent drug vs. incubation time curve. The in vitro half-life (in vitro t1/2) was determined from the slope value: in vitro t1/2=−(0.693)/k.

[2] = Metabolic stability in human liver microsomes (in vitro t1/2); type: in vitro ADME; settings: for half-life at 2 µM: human liver microsomes 0.5 mg/mL, 2 μM compound, read-out: Human microsome t1/2, min; for Human microsome % 60 min: human liver microsomes
Method: as §1

[3] = Metabolic stability in rat liver microsomes (in vitro t1/2); type: in vitro ADME; settings: for half-life at 2 µM: rat liver microsomes 0.5 mg/mL, 2 μM compound, read-out: Rat microsome t1/2, min; for Rat microsome % 60 min: rat liver microsomes
Method: as §1

MCT4 = MCT4 (Homo sapiens (Human), UniProt O15427); assay: Assay 3: MCT4-mediated lactate transport in MDA-MB-231 breast cancer cells; type: cell-based; settings: MDA-MB-231 cells; lactate transport
Outline: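 MDA-MB-231 cells loaded with BCECF-AM, 5 min at 37° C, washed and resuspended in Tyrode's Solution, pH 7.4. MCT4 lactate/proton symport followed as the intracellular pH change reported by BCECF fluorescence.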

MCT1 = MCT1 (Homo sapiens (Human), UniProt P53985); assay: Assay 4: MCT1-mediated lactate transport in BT20 breast cancer cells; type: cell-based; settings: Table 27
Outline: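 BT20 cells loaded with BCECF-AM (30 mM DMSO stock) for 5 min at 37° C, washed and resuspended in Tyrode's Solution pH 7.4. Lactate uptake tracked via BCECF intracellular pH signal after adding 10 mM L-lactate.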

Chain of MCT4 (O15427 whole entry, looked up): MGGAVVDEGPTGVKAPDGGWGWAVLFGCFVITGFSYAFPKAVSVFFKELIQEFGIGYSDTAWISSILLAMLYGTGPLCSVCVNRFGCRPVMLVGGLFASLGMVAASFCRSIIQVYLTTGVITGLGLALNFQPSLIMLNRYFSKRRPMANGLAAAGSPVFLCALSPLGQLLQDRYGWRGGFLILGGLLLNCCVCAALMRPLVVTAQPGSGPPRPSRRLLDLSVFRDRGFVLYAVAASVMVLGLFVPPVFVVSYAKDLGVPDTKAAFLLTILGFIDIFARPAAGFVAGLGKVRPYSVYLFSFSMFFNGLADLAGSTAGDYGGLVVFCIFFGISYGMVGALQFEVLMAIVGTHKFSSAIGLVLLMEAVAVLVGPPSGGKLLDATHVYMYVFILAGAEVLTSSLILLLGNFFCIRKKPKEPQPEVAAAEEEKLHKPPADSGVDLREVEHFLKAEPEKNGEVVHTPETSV
Chain of MCT4 (P35613 whole entry partner, looked up): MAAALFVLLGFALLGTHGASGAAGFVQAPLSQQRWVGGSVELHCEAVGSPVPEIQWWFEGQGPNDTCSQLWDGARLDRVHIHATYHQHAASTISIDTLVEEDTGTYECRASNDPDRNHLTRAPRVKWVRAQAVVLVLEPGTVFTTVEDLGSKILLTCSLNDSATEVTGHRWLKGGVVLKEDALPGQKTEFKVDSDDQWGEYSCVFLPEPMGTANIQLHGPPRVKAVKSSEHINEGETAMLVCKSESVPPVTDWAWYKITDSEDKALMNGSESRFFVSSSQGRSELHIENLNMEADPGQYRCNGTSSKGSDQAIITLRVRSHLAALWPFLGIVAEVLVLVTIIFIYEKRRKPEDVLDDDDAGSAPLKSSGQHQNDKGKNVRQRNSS
Chain of MCT1 (P53985 whole entry): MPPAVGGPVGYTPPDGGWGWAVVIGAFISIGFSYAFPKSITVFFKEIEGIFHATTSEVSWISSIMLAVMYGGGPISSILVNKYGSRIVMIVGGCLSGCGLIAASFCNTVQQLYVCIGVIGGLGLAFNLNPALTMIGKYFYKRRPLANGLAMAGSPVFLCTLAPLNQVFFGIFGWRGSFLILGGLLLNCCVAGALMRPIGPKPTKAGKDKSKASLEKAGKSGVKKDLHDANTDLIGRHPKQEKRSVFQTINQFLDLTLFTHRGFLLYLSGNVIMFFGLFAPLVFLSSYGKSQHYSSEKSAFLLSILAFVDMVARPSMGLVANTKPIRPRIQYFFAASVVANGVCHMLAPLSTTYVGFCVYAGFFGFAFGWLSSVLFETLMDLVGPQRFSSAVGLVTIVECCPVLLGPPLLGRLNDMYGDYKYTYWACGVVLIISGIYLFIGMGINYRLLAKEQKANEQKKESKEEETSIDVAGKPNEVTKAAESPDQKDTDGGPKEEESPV
Chain of MCT1 (P35613 140-385 partner): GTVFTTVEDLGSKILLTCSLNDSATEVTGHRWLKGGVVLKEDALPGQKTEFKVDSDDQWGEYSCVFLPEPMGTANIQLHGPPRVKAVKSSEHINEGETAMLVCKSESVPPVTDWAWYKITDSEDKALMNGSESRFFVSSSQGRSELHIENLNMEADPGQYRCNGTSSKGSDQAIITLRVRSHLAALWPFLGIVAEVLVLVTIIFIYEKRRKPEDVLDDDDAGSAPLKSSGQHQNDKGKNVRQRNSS

half-life at 2 µM [1] [h] | Mouse microsome % 60 min [1] [%] | half-life at 2 µM [2] [h] | Human microsome % 60 min [2] [%] | half-life at 2 µM [3] [h] | Rat microsome % 60 min [3] [%] | IC50 (MCT4) [nM] | IC50 (MCT1) [nM] | SMILES
6.17 | 88 | 6.33 | 89 |  |  |  |  | CC(C)(OCc1cc(-c2cccc(OC3CC3)c2)n(Cc2ccccc2Cl)n1)C(=O)O [Example 39, 2-([1-[(2-Chlorophenyl)methyl]-5-[3-(cyclopropoxy)phenyl]1H-pyrazol-3-yl]methoxy)-2-methylpropanoic acid]
12.7 | 95 | 1.3 | 59 |  |  |  |  | COc1cccc(-c2c(C)c(COC(C)(C)C(=O)O)nn2Cc2ccccc2Cl)c1 [Example 54, 2-({1-[(2-Chlorophenyl)methyl]-5-(3-methoxyphenyl)-4-methyl-1H-pyrazol-3-yl)methoxy)-2-methylpropionic acid]
> 33.3 | 100 | 3.17 | 80 |  |  |  |  | COc1cccc(-c2cc(COC(C)(C)C(=O)O)nn2-c2ccccc2Cl)c1 [Example 57, 2-([1-(2-chlorophenyl)-5-(3-methoxy-phenyl)-1H-pyrazol-3-yl]methoxy)-2-methylpropanoic acid]
9.33 | 92 | 2.33 | 78 |  |  |  |  | COc1csc(-c2cc(COC(C)(C)C(=O)O)nn2Cc2ccccc2Cl)c1 [Example 65, 2-([1-[(2-Chlorophenyl)methyl)-5-(4-methoxythien-2-yl)-1H-pyrazol-3-yl]methoxy)-2-methylpropanoic acid]
1.07 | 62 | 1.82 | 67 | 0.983 | 48 | 8.3 | 16000 | COc1cccc(-c2cc(COC(C)(C)C(=O)O)nn2Cc2ccccc2OC(C)C)c1 [Example 140, 2-([5-(3-Methoxyphenyl)-1-[[2-(propan-2-yloxy)phenyl]methyl]-1H-pyrazol-3-yl)methoxy)-2-methylpropanoic acid]
3.82 | 81 | 3.12 | 78 | 2.88 | 81 | 1.7 |  | Cn1ncc2cccc(-n3nc(COC(C)(C)C(=O)O)cc3-c3cccc(OCC4CCC4)c3)c21 [Example 168, 2-([5-[3-(cyclobutylmethoxy)phenyl]-1-(1-methyl-1H-indazol-7-yl)-1H-pyrazol-3-yl]-methoxy)-2-methylpropanoic acid]
21.7 | 97 | 7.22 | 88 | 5.03 | 88 |  | 78000 | CCOc1cccc(-n2nc(COC(C)(C)C(=O)O)cc2-c2cc(OC)cc(OC)c2)c1 [Example 243, 2-([5-(3,5-Dimethoxyphenyl)-1-(3-ethoxyphenyl)-1H-pyrazol-3-yl]methoxy)-2-methylpropanoic acid]

The remaining lines, values behind:

SMILES | half-life at 2 µM [1] [h] | Mouse microsome % 60 min [1] [%] | half-life at 2 µM [2] [h] | Human microsome % 60 min [2] [%] | half-life at 2 µM [3] [h] | Rat microsome % 60 min [3] [%] | IC50 (MCT4) [nM] | IC50 (MCT1) [nM]
COc1ccc(-c2cc(COC(C)(C)C(=O)O)nn2Cc2ccccc2Cl)s1 [Example 64] | 4.5 | 84 | 3.33 | 82 |  |  |  | 
COc1cc(-c2cc(COC(C)(C)C(=O)O)nn2Cc2ccccc2Cl)cs1 [Example 66, 2-([1-[(2-chlorophenyl)methyl]-5-(5-methoxythien-3-yl)-1H-pyrazol-3-yl]-methoxy)-2-methylpropanoic acid] | 4.33 | 83 | 2 | 73 |  |  |  | 
CCC(C)(OCc1cc(-c2cccc(OC)c2)n(Cc2ccccc2Cl)n1)C(=O)O (stereo not shown) [Example 68, 2-([1-[(2-Chlorophenyl)methyl]-5-(3-methoxyphenyl)-1H-pyrazol-3-yl)methoxy)-2-methylbutanoic acid] | 6.33 | 91 | 13.2 | 95 |  |  |  | 
CC[C@](C)(OCc1cc(-c2cccc(OC)c2)n(Cc2ccccc2Cl)n1)C(=O)O [Example 120, (2S)-2-([1-[(2-chlorophenyl)methyl]-5-(3-methoxyphenyl)-1H-pyrazol-3-yl]methoxy)-2-methylbutanoic Acid] | 6.83 | 101 | 3.3 | 81 | 0.85 | 44 | 4 | 22000
CC[C@@](C)(OCc1cc(-c2cccc(OC)c2)n(Cc2ccccc2Cl)n1)C(=O)O [Example 121, (2R)-2-([1-[(2-chlorophenyl)methyl]-5-(3-methoxyphenyl)-1H-pyrazol-3-yl]methoxy)-2-methylbutanoic Acid] | 3.1 | 81 | 3.3 | 82 | 1.43 | 61 | 8 | 21000
CC(C)COc1ncc(-c2cc(COC(C)(C)C(=O)O)nn2Cc2ccccc2Cl)s1 [Example 132, 2-([1-[(2-Chlorophenyl)methyl]-5-[2-(2-methylpropoxy)-1,3-thiazol-5-yl]-1H-pyrazol-3-yl]methoxy)-2-methylpropanoic acid] | 1.63 | 64 | 1.93 | 70 | 1.87 | 70 | 8.6 | 8200
CC(C)Oc1ncc(-c2cc(COC(C)(C)C(=O)O)nn2Cc2ccccc2Cl)s1 [Example 133, 2-([1-[(2-Chlorophenyl)methyl]-5-[2-(propan-2-yloxy)-1,3-thiazol-5-yl]-1H-pyrazol-3-yl]methoxy)-2-methylpropanoic acid] | 5.73 | 90 | 16.8 | 97 | 6.73 | 91 | 13 | > 33000
CC(C)Cc1ncc(-c2cc(COC(C)(C)C(=O)O)nn2Cc2ccccc2Cl)o1 [Example 134, 2-([1-[(2-Chlorophenyl)methyl]-5-[2-(2-methylpropyl)-1,3-oxazol-5-yl]-1H-pyrazol-3-yl]methoxy)-2-methylpropanoic acid] | 1.82 | 72 | 3.1 | 80 | 4.4 | 85 |  | 
CCn1ncc2ccc(-c3cc(COC(C)(C)C(=O)O)nn3-c3ccccc3Cl)cc21 [Example 157, 2-([1-(2-chlorophenyl)-5-(1-ethyl-1H-indazol-6-yl)-1H-pyrazol-3-yl]methoxy)-2-methylpropanoic acid] | 161 | 102 | 2.48 | 78 | 12.5 | 97 |  | 
